Data as given in patent publication US11390661B2, “HCMV entry inhibitors” (priority 2016, dated 2022).
Ends that are not written are not given here.

B1: PDGFR-beta-Fc: recombinant Fc-fusion protein obtained from R&D (385-PR-100), comparison chimera (protein)
chain: LVVTPPGPELVLNVSSTFVLTCSGSAPVVWERMSQEPPQEMAKAQDGTFSSVLTLTNLTGLDTGEYFCTHNDSRGLETDERKRLYIFVPDPTVGFLPNDAEELFIFLTEITEITIPCRVTDPQLVVTLHEKKGDVALPVPYDHQRGFSGIFEDRSYICKTTIGDREVDSDAYYVYRLQVSSINVSVNAVQTVVRQGENITLMCIVIGNEVVNFEWTYPRKESGRLVEPVTDFLLDMPYHIRSILHIPSAELEDSGTYTCNVTESVNDHQDEKAINITVVESGYVRLLGEVGTLQFAELHRSRTLQVVFEAYPPPTVLWFKDNRTLGDSSAGEIALSTRNVSETRYVSELTLVRVKVAEAGHYTMRAFHEDAEVQLSFQLQINVPVRVLELSESHPDSGEQTVRCRGRGMPQPNIIWSACRDLKRCPRELPPTLLGNSSEEESQLETNVTYWEEEQEFEVVSTLRLQHVDRPLSVRCTLRNAVGQDTQEVIVVPHSLPF
modifications: left off: a dimerising Fc or GST
notes: recombinant Fc-fusion protein obtained from R&D (385-PR-100), comparison chimera

Legend:
HCMV strain TB40/E [1] = type: cell-based, Human cytomegalovirus; details: HFFs
Protocol: For screening the PDGFRα peptides for their neutralizing capacity a recently developed Gaussia-Luciferase-Assay was utilized (10). The Gaussia luciferase is secreted into the cell culture supernatants, therefore it is not necessary to fix the cells and instead a sample of the Gaussia containing supernatant is taken and mixed with the substrate coelenterazine (PjK) at a final concentration of 0.2 μg/ml. The resulting light emission was detected at 495 nm. For all obtained values background signals were subtracted and neutralization efficiency was determined relative to the control samples which contained only virus, no peptide.
Cell free preparations of strain TB40/E were pre-incubated with the individual peptides at concentrations reaching from 0.05-50 nmol/ml for 2 h and the mixtures were then incubated with HFF cultures in a 96-well format. The various peptides differed greatly regarding their inhibitory potential with a region between aa120 and aa280 being absolutely ineffective and the peptides surrounding this region having the highest anti-HCMV effect (FIG. 9).

HCMV particles = assay: Binding of chimeric receptors (Fc-fusion proteins) to HCMV particles; set-up: species or system Human cytomegalovirus; details: particles pre-incubated with Fc-fusion protein, attached to cells on ice
Protocol: To assess the binding of Fc-Proteins to virus particles, HFFs were seeded at a density of 40,000 cells per well on IBIDI plates 1 day prior to infection. Virus preparations were pre-incubated with Fc-fusion proteins at a final concentration of 500 ng/ml for 2 h at 37° C. The virus/Fc-protein mixtures were incubated with the cells for 1.5 h on ice. Before fixation with 80% acetone, the cells were washed once with MEM. For staining of viral particles mouse hybridoma recognizing the abundant viral protein pp150 (generously provided by W. Britt, Sanchez 2000) used.
The inventors tested this by staining of adsorbed virus particles with the Fc-fusion proteins. […] Virus particles were stained for the capsid protein pp150 and bound Fc-fusion proteins.
The inventors analyzed the mode of inhibition by PDGFR-alpha-Fc. For this, the binding of different concentrations of the fusion protein was quantified by assessing the particle intensities after staining with anti-human antibody (FIG. 5). […] (FIGS. 4 and 5).

HCMV strain TB40/E [2] = assay: Inhibition of infection of fibroblasts (HFFs), IE antigen immunofluorescence; type: cell-based, Human cytomegalovirus; details: increasing concentrations, pre-incubated 2 h
Protocol: For testing the inhibitory effect of antivirals or fusion proteins on HCMV, the respective inhibitors were diluted in MEM and mixed with infectious supernatants, the mixtures were incubated for 2 h at 37° C. before addition to the cells. For fibroblast infection the virus-inhibitor mixture was incubated on the cells for about 24 h. If endothelial cells were included in the experiment, all cells were supplied with their respective maintenance media after 2 h, and further incubated for 22 h.
Infection efficiencies were determined by immunofluorescence staining for viral proteins. For fixation and permeabilization the cells were incubated with 80% acetone for 5 min. For HCMV infected cells the immediate early proteins pUL122/123 were detected with a mouse monoclonal (clone E13, Argene) and visualized using a Cy3 conjugated goat anti-mouse secondary antibody (Jackson Immuno Research). HSV infected cultures were stained 6 h post infection for ICP0 using a mouse monoclonal (clone 11060, Santa Cruz) and goat anti-mouse AF488 (life technologies). DAPI was used to locate nuclei. Infection rates were determined by counting the number of cell nuclei positive for the respective viral protein, as well as the total number of nuclei per image. For each condition three images were evaluated.
To test this, the inventors pre-incubated cell free preparations of HCMV strain TB40/E with variable concentrations of soluble PDGFR-alpha-Fc chimeras for 2 h before adding them to HFFs and HECs. After 2 h the virus was removed and replaced with the appropriate cell culture medium for an overnight incubation. Cultures were then fixed, and the fraction of infected cells was determined by indirect immunofluorescence staining of viral IE antigens.
Cell free preparations of TB40/E were pre-incubated with increasing concentrations of the various Fc chimeras for 2 h. HFFs were then incubated with the mixtures for 2 h followed by a medium exchange and an overnight incubation.

| Molecule | inhibition at 10 nmol/ml (HCMV strain TB40/E [1]; 10 nmol/ml) | EC50 (HCMV strain TB40/E [1]; pre-incubated 2 h, read-out: EC50 of inhibition of HCMV infection by peptide) [µM] | binding of Fc-fusion protein to virus particles (anti-human antibody staining) (HCMV particles) | inhibitory potential of Fc chimeras on HCMV infection of HFFs (HCMV strain TB40/E [2]) |
| --- | --- | --- | --- | --- |
| GRHIYIYVPDPDVAFVPLGMTDYLVIVEDDDSAIIPCRTT [peptide between aa90 and aa130] | almost complete inhibition | 2 |  |  |
| B1 |  |  | visualized only those particles that were pre-treated with PDGFR-alpha-Fc | neither PDGFR-beta-Fc nor EGFR-Fc had an effect |
